# Experimental data as given in US20150023885A1, “Antiperspirant Spray Devices and Compositions” (The Procter & Gamble Company, priority 2013, published 2015).
# Description: (§1) Solubility may be determined by measuring the amount of light transmittance (a light transmittance value) through a simple mixture of the non-volatile silicone fluid and liquid activation enhancer at the same weight/weight concentrations as in a final antiperspirant composition.
# as §1, with “Solubility of a liquid activation enhancer in a non-volatile silicone” for “Solubility”, “(light” for “(a light”
# The Spectronic Genesys 10 Vis utilizes a tungsten-halogen light source and has a spectral bandwidth of 5 nm, a wavelength range of 325 to 1100 nm, accuracy of ±1 nm and a repeatability of ±0.5 nm. Readouts include absorbance, transmittance and concentration. The spectrophotometer is set to 640 nm wavelength and the percent transmittance mode/readout. Polystyrene spectrometer cuvettes having a 1 cm optical light path and transmittance between ˜340 nm and ˜900 nm are used. One suitable example of a spectrometer cuvette is available from VWR International LLC under Catalog #97000-584 having a 2.5 to 4.5 ml capacity. The spectrophotometer is calibrated according to the manufacturer's instructions using a reference cuvette and composition comprised of just the non-volatile silicone fluid of interest. For example, if the test composition comprises 50 centistoke dimethicone and 15% w/w of isopropyl myristate, then the spectrometer is calibrated using a cuvette containing just 50 centistoke dimethicone. Sample cuvettes are filled sufficiently with a test composition of a non-volatile silicone fluid and liquid activation enhancer so that the light path of the spectrophotometer passes through the test composition in the cuvette. The sample cuvettes are shaken well just prior to taking a light transmittance reading.
light transmittance value,Molecule,solubility in 50 centistoke dimethicone
about 100%,CCCCCCCCCCCCCCCCCC(=O)OCCCC [butyl stearate],–
about 100%,CCCCCCCCCCCCCC(C)C [isohexadecane],soluble in 50 centistoke dimethicone across the 2% to 30% w/w concentration range
–,PPG-14 butyl ether,insoluble in 50 centistoke dimethicone across the 2% to 30% w/w concentration range
about 100%,mineral oil,–
